Measured values reported in US20260345590A1, “COMBINATIONS OF ESTROGEN RECEPTOR DEGRADERS AND AKT INHIBITORS” (Arvinas Operations, Inc., priority 2023, published 2026).
One block for each molecule: values may come before it.

Legend:
AKT isoforms = conditions: cited from earlier work
[1] = Biopharmaceutics Classification System classification; assay type: physicochemical; conditions: BCS Class IV
MCF7 cells = assay: Dose-Response Matrix Assay (cell viability, Cell-Titer Glo, Combenefit synergy analysis); assay type: cell-based; conditions: 8-point curve 100 to 0.046 nM, Day 5
Method: Cells were seeded at 2×10^3 cells in 200 μl of media per well in 96 well plates and incubated overnight at 37 °C. […] At Day 5 cell viability was measured using Cell-Titer Glo and CTG data were analyzed with the Combenefit Software (5).

[2] = exposure of epimer Compound C relative to Compound A (preclinical data); assay type: in vivo
ER = molecular target: T1, ER (Homo sapiens, UniProt P03372); assay: degradation of the ER
T1 construct: cells or constructs not described in excerpts
T1 sequence (P03372 1-595): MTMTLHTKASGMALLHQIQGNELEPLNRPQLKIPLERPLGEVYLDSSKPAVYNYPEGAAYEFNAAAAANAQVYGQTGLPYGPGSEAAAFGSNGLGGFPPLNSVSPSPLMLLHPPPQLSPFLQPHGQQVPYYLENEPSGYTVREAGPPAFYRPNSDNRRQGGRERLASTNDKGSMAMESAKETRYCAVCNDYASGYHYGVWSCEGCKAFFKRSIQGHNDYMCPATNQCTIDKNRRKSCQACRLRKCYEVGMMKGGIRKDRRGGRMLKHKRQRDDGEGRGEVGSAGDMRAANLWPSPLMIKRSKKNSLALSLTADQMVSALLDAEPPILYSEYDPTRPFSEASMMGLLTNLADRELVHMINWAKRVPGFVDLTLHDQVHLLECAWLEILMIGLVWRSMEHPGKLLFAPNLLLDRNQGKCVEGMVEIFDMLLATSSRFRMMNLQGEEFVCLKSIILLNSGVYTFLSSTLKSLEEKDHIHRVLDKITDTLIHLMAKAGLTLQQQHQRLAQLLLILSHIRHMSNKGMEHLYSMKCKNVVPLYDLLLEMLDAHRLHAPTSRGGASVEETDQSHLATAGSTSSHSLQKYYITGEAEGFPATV

Compound: Cn1ncc(Cl)c1-c1cc(C(=O)N[C@H](CN)Cc2cccc(F)c2)sc1Cl [Afuresertib, N-[(2S)-1-amino-3-(3-fluorophenyl)propan-2-yl]-5-chloro-4-(4-chloro-2-methyl-3-pyrazolyl)-2-thiophenecarboxamide]
mode of AKT kinase inhibition (AKT isoforms): reversible, ATP-competitive
pan-AKT kinase inhibition potency (AKT isoforms; reversible, ATP-competitive): low-nanomolar

Compound: NC1(C(=O)N[C@@H](CCO)c2ccc(Cl)cc2)CCN(c2ncnc3[nH]ccc23)CC1 [Capivasertib, 4-amino-N-[(1S)-1-(4-chlorophenyl)-3-hydroxypropyl]-1-(7H-pyrrolo[2,3-d]pyrimidin-4-yl)piperidine-4-carboxamide]
binding to and inhibition of AKT isoforms (AKT isoforms): binds to and inhibits all AKT isoforms

permeability [1]: low permeability
solubility [1]: low solubility
Compound: O=C1CC[C@H](N2Cc3cc(N4CCN(CC5CCN(c6ccc([C@@H]7c8ccc(O)cc8CC[C@@H]7c7ccccc7)cc6)CC5)CC4)ccc3C2=O)C(=O)N1 [Compound A, (S)-3-(5-(4-((1-(4-((1R,2S)-6-hydroxy-2-phenyl-1,2,3,4-tetrahydronaphthalen-1-yl)phenyl)piperidin-4-yl)methyl)piperazin-1-yl)-1-oxoisoindolin-2-yl)piperidine-2,6-dione]
synergy on cell viability (MCF7 cells; combination with afuresertib): evidence of synergy
synergy on cell viability (MCF7 cells; combination with capivasertib): evidence of synergy

exposure of Compound C compared to Compound A [2]: < 26%
degradation of the ER (ER): does not degrade the ER
Compound: O=C1CC[C@@H](N2Cc3cc(N4CCN(CC5CCN(c6ccc([C@@H]7c8ccc(O)cc8CC[C@@H]7c7ccccc7)cc6)CC5)CC4)ccc3C2=O)C(=O)N1 [Compound C]
